Assay results published in ChEMBL document CHEMBL1201862, “PubChem BioAssay data set” (2004).
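Assay format: 96-well plates, 48-hour exposure. At the GI50, growth is halved.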 Calls of active or inactive are those of the source. Rule as the data show it: active = GI50 up to about 1.1 µM and inactive = higher.

How the values were obtained:
Assay in all cases: inhibition of tumour cell growth, NCI panel, 48 h
[1] = tested on: SNB-19
[2] = tested on: CCRF-CEM
[3] = tested on: CAKI-1
[4] = tested on: NCI-H226
[5] = tested on: EKVX
[6] = tested on: UACC-62
[7] = tested on: SK-MEL-2
[8] = tested on: HL-60
[9] = tested on: UACC-257
[10] = tested on: OVCAR-5
[11] = tested on: A498
[12] = tested on: M14
[13] = tested on: Hs-578T
[14] = tested on: MCF7
[15] = tested on: SF-268
[16] = tested on: U-251
[17] = tested on: LOX IMVI
[18] = tested on: PC-3
[19] = tested on: UO-31
[20] = tested on: SF-295
[21] = tested on: NCI-H522
[22] = tested on: SK-MEL-5
[23] = tested on: SK-MEL-28
[24] = tested on: IGROV-1
[25] = tested on: HT-29
[26] = tested on: RPMI-8226
[27] = tested on: T47D
[28] = tested on: 786-0
[29] = tested on: SN12C
[30] = tested on: HCC 2998
[31] = tested on: MOLT-4
[32] = tested on: NCI-H23
[33] = tested on: TK-10
[34] = tested on: HOP-92
[35] = tested on: NCI-H460
[36] = tested on: OVCAR-3
[37] = tested on: DU-145
[38] = tested on: HCT-116
[39] = tested on: HCT-15
[40] = tested on: SF-539
[41] = tested on: BT-549
[42] = tested on: KM12
[43] = tested on: SK-OV-3
[44] = tested on: OVCAR-4
[45] = tested on: HOP-62
[46] = tested on: SW-620
[47] = tested on: SR
[48] = tested on: NCI/ADR-RES
[49] = tested on: MDA-N
[50] = tested on: MDA-MB-231
[51] = tested on: ACHN
[52] = tested on: K562
[53] = tested on: MDA-MB-435
[54] = tested on: COLO 205
[55] = tested on: Malme-3M
[56] = tested on: A549
[57] = tested on: OVCAR-8
[58] = tested on: RXF 393
[59] = tested on: SNB-75

**Q.** Which results are given for `COc1ccc(-c2oc3c(OC)c(OC)c(OC)c(OC)c3c(=O)c2OC)cc1OC` [3,5,6,7,8,3',4'-HEPTAMETHOXYFLAVONE]?
**A.** GI50 [1]: > 100 µM (inactive); GI50 [2]: 25.6 µM (inactive); GI50 [3]: 53.8 µM (inactive); GI50 [4]: 48.9 µM (inactive); GI50 [5]: 55.7 µM (inactive); GI50 [6]: 48.3 µM (inactive); GI50 [7]: 29.6 µM (inactive); GI50 [8]: 14.1 µM (inactive); GI50 [9]: 53.1 µM (inactive); GI50 [10]: > 100 µM (inactive); GI50 [11]: 31 µM (inactive); GI50 [12]: 41.4 µM (inactive); GI50 [13]: 20.9 µM (inactive); GI50 [14]: 21.3 µM (inactive); GI50 [15]: 5.45 µM (inactive); GI50 [16]: 51.5 µM (inactive); GI50 [17]: 27 µM (inactive); GI50 [18]: 26.6 µM (inactive); GI50 [19]: 23.6 µM (inactive); GI50 [20]: 32 µM (inactive); GI50 [21]: 19.4 µM (inactive); GI50 [22]: 19.3 µM (inactive); GI50 [23]: 66.7 µM (inactive); GI50 [24]: 30.3 µM (inactive); GI50 [25]: 26.5 µM (inactive); GI50 [26]: 12.4 µM (inactive); GI50 [27]: 22.4 µM (inactive); GI50 [28]: 24.5 µM (inactive); GI50 [29]: 93.3 µM (inactive); GI50 [30]: 63.8 µM (inactive); GI50 [31]: 22.4 µM (inactive); GI50 [32]: 72.6 µM (inactive); GI50 [33]: 61 µM (inactive); GI50 [34]: 0.0481 µM (active); GI50 [35]: 19.8 µM (inactive); GI50 [36]: 18.7 µM (inactive); GI50 [37]: 55.1 µM (inactive); GI50 [38]: 47.4 µM (inactive); GI50 [39]: 35.9 µM; GI50 [40]: 65.8 µM (inactive); GI50 [41]: 50.7 µM (inactive); GI50 [42]: 47.5 µM (inactive); GI50 [43]: > 100 µM (inactive); GI50 [44]: 47.2 µM (inactive); GI50 [45]: 14.5 µM (inactive); GI50 [46]: 32.8 µM (inactive); GI50 [47]: 19.1 µM (inactive); GI50 [48]: 20.3 µM (inactive); GI50 [49]: 27.6 µM (inactive); GI50 [50]: 59.7 µM (inactive); GI50 [51]: 33.5 µM (inactive); GI50 [52]: 31.5 µM (inactive); GI50 [53]: 15.8 µM (inactive); GI50 [54]: 65.6 µM (inactive); GI50 [55]: 28 µM (inactive); GI50 [56]: 70.6 µM (inactive); GI50 [57]: 23.6 µM (inactive)

**Q.** What does the source list for `COc1cc(/C=C/C(=O)CC(=O)/C=C/c2cc(OC)c(O)c(OC)c2)cc(OC)c1O`?
**A.** GI50 [1]: 7.74 µM (inactive); GI50 [2]: > 25 µM (inactive); GI50 [3]: 9.04 µM (inactive); GI50 [4]: 10.2 µM (inactive); GI50 [5]: 12.6 µM (inactive); GI50 [6]: 4.22 µM (inactive); GI50 [7]: 7.57 µM (inactive); GI50 [8]: 16.3 µM (inactive); GI50 [9]: 8.34 µM (inactive); GI50 [10]: 10.3 µM (inactive); GI50 [11]: 4.93 µM (inactive); GI50 [12]: 8.61 µM (inactive); GI50 [13]: 7.93 µM (inactive); GI50 [14]: 14.9 µM (inactive); GI50 [15]: 5.37 µM (inactive); GI50 [16]: 8.11 µM (inactive); GI50 [17]: 7.82 µM (inactive); GI50 [18]: 10.4 µM (inactive); GI50 [19]: > 25 µM (inactive); GI50 [20]: 9.91 µM (inactive); GI50 [21]: 5.81 µM (inactive); GI50 [58]: 3.33 µM (inactive); GI50 [22]: 8.63 µM (inactive); GI50 [23]: 5.71 µM (inactive); GI50 [24]: 5.35 µM (inactive); GI50 [25]: 7.76 µM (inactive); GI50 [26]: 9.86 µM (inactive); GI50 [27]: 6.5 µM (inactive); GI50 [28]: 5.82 µM (inactive); GI50 [29]: 6.68 µM (inactive); GI50 [30]: 5.37 µM (inactive); GI50 [31]: 6.84 µM (inactive); GI50 [32]: 10.3 µM (inactive); GI50 [33]: 20.2 µM (inactive); GI50 [35]: 22.8 µM (inactive); GI50 [36]: 6.85 µM (inactive); GI50 [37]: 7.83 µM (inactive); GI50 [38]: 5.12 µM (inactive); GI50 [59]: 3.01 µM (inactive); GI50 [39]: > 25 µM; GI50 [40]: 8.77 µM (inactive); GI50 [41]: 8.95 µM (inactive); GI50 [42]: 6.15 µM (inactive); GI50 [43]: 7.94 µM (inactive); GI50 [44]: 23.7 µM (inactive); GI50 [45]: 11.7 µM (inactive); GI50 [46]: > 25 µM (inactive); GI50 [47]: 5.53 µM (inactive); GI50 [48]: > 25 µM (inactive); GI50 [49]: 4.74 µM (inactive); GI50 [50]: 13.8 µM (inactive); GI50 [51]: 9.31 µM (inactive); GI50 [52]: 8.69 µM (inactive); GI50 [53]: 6.17 µM (inactive); GI50 [54]: 10.1 µM (inactive); GI50 [55]: 9.16 µM (inactive); GI50 [56]: 8.26 µM (inactive); GI50 [57]: 10.4 µM (inactive)
